IC50 data for three compounds are collected here from BindingDB's records for doi:10.1016/j.ejmech.2018.08.085 (China Pharmaceutical University, 2018).

The nature of this assay: Binding affinity to VDR in scrambled siRNA-transfected human MCF7 cells assessed as cell growth inhibition by measuring reduction in BrdU incorporation after 16 hrs by ELISA. On the technique in general: Dividing cells build labelled thymidine or BrdU into new DNA.
The IC50 is the concentration that gives 50% inhibition. On to `CCn1c(C(=O)N[C@@H](C)CO)ccc1C(CC)(CC)c1ccc(OCC(O)C(C)(C)C)c(C)c1` (stereo partly drawn), for which the IC50 turned out to be 4300 nM.

As for `CCN(CC)CCNC(=O)c1ccc(C(CC)(CC)c2ccc(OCSC)c(C)c2)n1CC`, the half-maximal inhibitory concentration (IC50) worked out at 970 nM.

As to `CCN(CC)CCNC(=O)c1cc(C(CC)(CC)c2ccc(OCS(=O)(=O)c3ccccc3)c(C)c2)cn1CC`, the IC50 turned out to be 650 nM.
